# Counter-ions that a name gives are not always drawn.
# Target: T1, human B1 (Homo sapiens, UniProt P46663)
# T1 construct: host or cells: CHO-K1
# T1 sequence (P46663 1-353): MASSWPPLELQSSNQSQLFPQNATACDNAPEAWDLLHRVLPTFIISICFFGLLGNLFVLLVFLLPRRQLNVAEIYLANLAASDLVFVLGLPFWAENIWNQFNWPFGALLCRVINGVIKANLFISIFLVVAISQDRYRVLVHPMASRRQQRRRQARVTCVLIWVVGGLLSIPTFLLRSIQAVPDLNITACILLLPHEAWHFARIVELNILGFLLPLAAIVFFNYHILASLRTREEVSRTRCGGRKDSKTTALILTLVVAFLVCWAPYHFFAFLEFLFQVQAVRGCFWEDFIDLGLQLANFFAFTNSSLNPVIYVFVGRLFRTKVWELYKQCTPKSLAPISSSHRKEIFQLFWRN
# Experiment: Calcium flux assay for Bradykinin B1 antagonist, CHO-K1 cell line expressing human B1
# Type: cell-based
# Settings: CHO-K1 cells expressing human B1, agonist Lys-(Des-Arg)-Bradykinin, read-out: Potency (IC50 value against human B1)
# How it was run: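 Inhibition of B1 agonist-evoked intracellular Ca2+ rise was followed by continuous fluorescence at 538 nm, with integrated, background-normalized signals plotted versus log compound concentration. Test compounds (eight 10-fold dilutions, triplicate, 1% DMSO final) were added 30 min at 25° C beforehand to Fluo-4AM-loaded human B1 CHO-K1 cells in pH 7.4 assay buffer.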
row,Compound,IC50
1,"CCN(Cc1cc(C(=O)N(C)Cc2ccc(CN3CCCC3)cc2)co1)S(=O)(=O)c1c(C)cc(OC)cc1C [Ex 102, 5-({Ethyl[(4-methoxy-2,6-dimethylphenyl)sulfonyl]amino}methyl)-N-methyl-N-[4-(pyrrolidin-1-ylmethyl)benzyl]furan-3-carboxamide trifluoroacetate]",0.1 to 1 µM
2,"CCN(Cc1cc(C(=O)N(C)Cc2ccc(C3=NCCN3)cc2)co1)S(=O)(=O)c1c(C)cc(OC)cc1C [Ex 103, N-[4-(4,5-Dihydro-1H-imidazol-2-yl)benzyl]-5-({ethyl[(4-methoxy-2,6-dimethylphenyl)sulfonyl]amino}methyl)-N-methylfuran-3-carboxamide trifluoroacetate]",0.01 to 0.1 µM
3,"CCN(Cc1cc(C(=O)NCCc2ccc(C3=NCCN3)cc2)co1)S(=O)(=O)c1c(C)cc(OC)cc1C [Ex 104, N-{2-[4-(4,5-Dihydro-1H-imidazol-2-yl)phenyl]ethyl}-5-({ethyl[(4-methoxy-2,6-dimethylphenyl)sulfonyl]amino}methyl)furan-3-carboxamide trifluoroacetate]",0.01 to 0.1 µM
4,"COc1cc(C)c(S(=O)(=O)N(Cc2cc(C(=O)N3CCN(CC4CCN(C)CC4)CC3)co2)C2CC2)c(C)c1 [Ex 105, N-Cyclopropyl-4-methoxy-2,6-dimethyl-N-{[4-({4-[(1-methylpiperidin-4-yl)methyl]piperazin-1-yl}carbonyl)furan-2-yl]methyl}benzenesulfonamide trifluoroacetate]",0.01 to 0.1 µM
5,"COc1cc(C)c(S(=O)(=O)N(Cc2cc(C(=O)N3CCN(CC4CCCN(C)C4)CC3)co2)C2CC2)c(C)c1 (stereo not shown) [Ex 106, N-Cyclopropyl-4-methoxy-2,6-dimethyl-N-{[4-({4-[(1-methylpiperidin-3-yl)methyl]piperazin-1-yl}carbonyl)furan-2-yl]methyl}benzenesulfonamide trifluoroacetate]",0.01 to 0.1 µM
6,"COc1cc(C)c(S(=O)(=O)N(Cc2cc(C(=O)N3CCN(C4CC5CCC(C4)N5C)CC3)co2)C2CC2)c(C)c1 (stereo not shown) [Ex 107, N-Cyclopropyl-4-methoxy-2,6-dimethyl-N-[(4-{[4-(8-methyl-8-azabicyclo[3.2.1]oct-3-yl)piperazin-1-yl]carbonyl}furan-2-yl)methyl]benzenesulfonamide trifluoroacetate]",0.01 to 0.1 µM
7,"COc1cc(C)c(S(=O)(=O)N(Cc2cc(C(=O)N3CCN(C4CC(C)(C)N(C)C(C)(C)C4)CC3)co2)C2CC2)c(C)c1 [Ex 108, N-Cyclopropyl-4-methoxy-2,6-dimethyl-N-[(4-{[4-(1,2,2,6,6-pentamethylpiperidin-4-yl)piperazin-1-yl]carbonyl}furan-2-yl)methyl]benzenesulfonamide trifluoroacetate]",0.1 to 1 µM
8,"COc1cc(C)c(S(=O)(=O)N(Cc2cc(C(=O)N3CCN(CCN4CCCCC4)CC3)co2)C2CC2)c(C)c1 [Ex 109, N-Cyclopropyl-4-methoxy-2,6-dimethyl-N-[(4-{[4-(2-piperidin-1-ylethyl)piperazin-1-yl]carbonyl}furan-2-yl)methyl]benzenesulfonamide trifluoroacetate]",0.1 to 1 µM
9,"COc1cc(C)c(S(=O)(=O)N(Cc2cc(C(=O)N3CCN(CCc4ccncc4)CC3)co2)C2CC2)c(C)c1 [Ex 110, N-Cyclopropyl-4-methoxy-2,6-dimethyl-N-[(4-{[4-(2-pyridin-4-ylethyl)piperazin-1-yl]carbonyl}furan-2-yl)methyl]benzenesulfonamide trifluoroacetate]",0.1 to 1 µM
10,"COc1cc(C)c(S(=O)(=O)N(Cc2cc(C(=O)N3CCN(Cc4cccnc4)CC3)co2)C2CC2)c(C)c1 [Ex 111, N-Cyclopropyl-4-methoxy-2,6-dimethyl-N-[(4-{[4-(pyridin-3-ylmethyl)piperazin-1-yl]carbonyl}furan-2-yl)methyl]benzenesulfonamide trifluoroacetate]",0.1 to 1 µM
11,"COc1cc(C)c(S(=O)(=O)N(Cc2cc(C(=O)N3CCN(CCN4CCCC4)CC3)co2)C2CC2)c(C)c1 [Ex 112, N-Cyclopropyl-4-methoxy-2,6-dimethyl-N-[(4-{[4-(2-pyrrolidin-1-ylethyl)piperazin-1-yl]carbonyl}furan-2-yl)methyl]benzenesulfonamide trifluoroacetate]",0.01 to 0.1 µM
12,"CCN1CCN(CCNC(=O)c2coc(CN(C3CC3)S(=O)(=O)c3c(C)cc(OC)cc3C)c2)CC1 [Ex 113, 5-({Cyclopropyl[(4-methoxy-2,6-dimethylphenyl)sulfonyl]amino}methyl)-N-[2-(4-ethylpiperazin-1-yl)ethyl]furan-3-carboxamide trifluoroacetate]",0.1 to 1 µM
13,"COc1cc(C)c(S(=O)(=O)N(Cc2cc(C(=O)N3CCN(CCc4ccccn4)CC3)co2)C2CC2)c(C)c1 [Ex 114, N-Cyclopropyl-4-methoxy-2,6-dimethyl-N-[(4-{[4-(2-pyridin-2-ylethyl)piperazin-1-yl]carbonyl}furan-2-yl)methyl]benzenesulfonamide trifluoroacetate]",0.1 to 1 µM
14,"COc1cc(C)c(S(=O)(=O)N(Cc2cc(C(=O)N3CCN(CCCN4CCCC4)CC3)co2)C2CC2)c(C)c1 [Ex 115, N-Cyclopropyl-4-methoxy-2,6-dimethyl-N-[(4-{[4-(3-pyrrolidin-1-ylpropyl)piperazin-1-yl]carbonyl}furan-2-yl)methyl]benzenesulfonamide trifluoroacetate]",0.01 to 0.1 µM
15,"COc1cc(C)c(S(=O)(=O)N(Cc2cc(C(=O)N3CCCN(CCCN4CCCC4)CC3)co2)C2CC2)c(C)c1 [Ex 116, N-Cyclopropyl-4-methoxy-2,6-dimethyl-N-[(4-{[4-(3-pyrrolidin-1-ylpropyl)-1,4-diazepan-1-yl]carbonyl}furan-2-yl)methyl]benzenesulfonamide trifluoroacetate]",0.01 to 0.1 µM
16,"COc1cc(C)c(S(=O)(=O)N(Cc2cc(C(=O)N3CCN(CC(=O)Nc4cccnc4)CC3)co2)C2CC2)c(C)c1 [Ex 117, 2-(4-{[5-({Cyclopropyl[(4-methoxy-2,6-dimethylphenyl)sulfonyl]amino}methyl)furan-3-yl]carbonyl}piperazin-1-yl)-N-pyridin-3-ylacetamide trifluoroacetate]",0.1 to 1 µM
17,"COc1cc(C)c(S(=O)(=O)N(Cc2cc(C(=O)N3CCN(CCCN(C)C)CC3)co2)C2CC2)c(C)c1 [Ex 118, N-Cyclopropyl-N-{[4-({4-[3-(dimethylamino)propyl]piperazin-1-yl}carbonyl)furan-2-yl]methyl}-4-methoxy-2,6-dimethylbenzenesulfonamide trifluoroacetate]",0.01 to 0.1 µM
18,"COc1cc(C)c(S(=O)(=O)N(Cc2cc(C(=O)N3CCC(N4CCN(C)CC4)CC3)co2)C2CC2)c(C)c1 [Ex 119, N-Cyclopropyl-4-methoxy-2,6-dimethyl-N-[(4-{[4-(4-methylpiperazin-1-yl)piperidin-1-yl]carbonyl}furan-2-yl)methyl]benzenesulfonamide trifluoroacetate]",0.1 to 1 µM
19,"COc1cc(C)c(S(=O)(=O)N(Cc2cc(C(=O)N3CCC(CCN4CCCC4)CC3)co2)C2CC2)c(C)c1 [Ex 120, N-Cyclopropyl-4-methoxy-2,6-dimethyl-N-[(4-{[4-(2-pyrrolidin-1-ylethyl)piperidin-1-yl]carbonyl}furan-2-yl)methyl]benzenesulfonamide trifluoroacetate]",< 0.01 µM
20,"CCN(Cc1cc(C(=O)N(C)Cc2ccc(CN3CCCC3)cc2)co1)S(=O)(=O)c1c(Cl)cccc1Cl [Ex 121, 5-({[(2,6-Dichlorophenyl)sulfonyl](ethyl)amino}methyl)-N-methyl-N-[4-(pyrrolidin-1-ylmethyl)benzyl]furan-3-carboxamide trifluoroacetate]",0.1 to 1 µM
21,"CCN(Cc1cc(C(=O)NCCc2ccc(C3=NCCN3)cc2)co1)S(=O)(=O)c1c(Cl)cccc1Cl [Ex 122, 5-({[(2,6-Dichlorophenyl)sulfonyl](ethyl)amino}methyl)-N-{2-[4-(4,5-dihydro-1H-imidazol-2-yl)phenyl]ethyl}furan-3-carboxamide trifluoroacetate]",0.1 to 1 µM
22,"CN(Cc1ccc(C2=NCCN2)cc1)C(=O)c1coc(CN(C2CC2)S(=O)(=O)c2c(Cl)cc(Br)cc2Cl)c1 [Ex 123, 5-({[(4-Bromo-2,6-dichlorophenyl)sulfonyl](cyclopropyl)amino}methyl)-N-[4-(4,5-dihydro-1H-imidazol-2-yl)benzyl]-N-methylfuran-3-carboxamide trifluoroacetate]",< 0.01 µM
23,"CN(CCc1ccc(C2=NCCN2)cc1)C(=O)c1coc(CN(C2CC2)S(=O)(=O)c2c(Cl)cc(Br)cc2Cl)c1 [Ex 124, 5-({[(4-Bromo-2,6-dichlorophenyl)sulfonyl](cyclopropyl)amino}methyl)-N-{2-[4-(4,5-dihydro-1H-imidazol-2-yl)phenyl]ethyl}-N-methylfuran-3-carboxamide trifluoroacetate]",< 0.01 µM
24,"O=C(c1coc(CN(C2CC2)S(=O)(=O)c2c(Cl)cc(Br)cc2Cl)c1)N1CCCC(c2ccc(CN3CCCC3)cc2)C1 (stereo not shown) [Ex 125, 4-Bromo-2,6-dichloro-N-cyclopropyl-N-{[4-({3-[4-(pyrrolidin-1-ylmethyl)phenyl]piperidin-1-yl}carbonyl)furan-2-yl]methyl}benzenesulfonamide trifluoroacetate]",0.1 to 1 µM
25,"COc1cc(C)c(S(=O)(=O)N(C)Cc2cc(C(=O)N(C)Cc3ccc(CN4CCC(O)CC4)cc3)co2)c(C)c1 [Ex 126, N-{4-[(4-Hydroxypiperidin-1-yl)methyl]benzyl}-5-({[(4-methoxy-2,6-dimethylphenyl)sulfonyl](methyl)amino}methyl)-N-methylfuran-3-carboxamide]",0.01 to 0.1 µM
